How the values were obtained:
Erk → pRsk = assay: Cellular substrate phosphorylation (Western Blotting), Erk substrate pRsk; format: cell-based; conditions: for inhibition at 50 µM: 5 h; for Erk inhibition / inhibition of the Erk substrate p-Rsk (in words): Western Blotting
Description: (§1) This method can be used to predict whether the kinase modulator under study also achieves the desired effect in a cellular context, i.e. in this case, a substrate protein downstream of the target kinase is investigated for its phosphorylation status. For this purpose, the cells incubated with substance are lysed and the total protein separated on a reducing polyacrylamide gel. The proteins are then transferred to a PVDF membrane by means of Western Blotting and the substrate bands sought are made visible with specific antibodies and a suitable detection method. The substrate proteins downstream of the target kinases are detected simultaneously with a respectively special anti-phospho-antibody and at the same time a total antibody which recognizes the substrate total protein. This simultaneous measurement can be made using the duplex technology of the ODYSSEY imagers (LiCOR). The intensity of the total substrate bands is used for normalising or quantifying the phosphorylation inhibition or activation.
(§2) Suitable tumour cell lines (e.g. BxPC3, Hct116 or MDA MB468) were injected into six-well microtitre plates in a defined cell number (e.g. 350 000 cells/well for BxPC3 and Hct116) in the respective standard complete medium and then incubated overnight at 37° C., 5% CO2 and 95% air humidity. The cells were then incubated for a further 24 h under serum-reduced conditions i.e. in the respective medium but with only 0.25% serum. The test substances were prepared as stock solutions (10 mM) in DMSO and incubated with the cells in final concentrations of 5, 15.8 and 50 μM for 5 h. This was followed by cell lysis in 25 mM Tris, 150 mM NaCl, 10 mM Na-pyrophosphate, 2 mM EGTA, 25 mM β-glycerophosphate, 25 mM NaF, 10% glycerine, 0.75% NP-40, 100 μM NaVO4 buffer. Following protein quantification by means of BCA (bicinchonic acid protein assay kit, Sigma) Assay, protein quantities of about 20 μg per track were separated on a Lämmli polyacrylamide gel and then transferred to a PVDF membrane (Millipore) by means of Semi-Dry Western-Blotting at 0.8 mA/cm^2 for 1 h. This was followed by pre-hybridisation of the membrane for 1 hour in I-block reagent (Applied Biosystems) and incubation overnight with the specific antibodies. To determine the Erk and PI3K inhibition, the respectively downstream substrates Rsk1 were detected with the total antibody (Rsk #sc-231g C-21, Santa Cruz) and the phospho-antibody (Phospho-p90RSK (S380) #9341, NEB Cell Signalling) and Akt was detected with the total antibody (Akt1 #sc-1618 C-20, Santa Cruz) and the phospho-antibody (Phospho-Akt (Ser 473) #9271, NEB Cell Signaling). After washing the membrane, secondary antibody incubation was carried out with anti-rabbit IR Dye 800 (#611-732-127, Rockland) for the phospho-antibody and anti-goat Alexa Fluor 680 (#A-21081, Molecular Probes) for the total protein-antibody. After incubating for 30 min at room temperature in the dark, the hybridisation of the detection antibody on the membrane was detected by scanning in the ODYSSEY imager (LiCOR).
(§3) The reduction of the fluorescence intensity of the phospho-substrate bands (pRsk and pAkt) is given in the table below as % inhibition and relates to the following formula:
(§4) The band intensity (fluorescence intensity) of the respective non-inhibited (without substance) phospho-substrates was used as 100% control.

PI3K → pAkt = assay: Cellular substrate phosphorylation (Western Blotting), PI3K substrate pAkt; format: cell-based; conditions: for inhibition at 50 µM: 5 h; for PI3K inhibition / inhibition of the PI3K substrate p-Akt (in words): Western Blotting
Description: as §1, §2, §3, §4

Erk2 = Erk2 (Homo sapiens, UniProt P28482); assay: Cell-free kinase assay (ALPHA technology), Erk2; format: biochemical; conditions: 10 μM ATP
Erk2, sequence (P28482 2-360 limits assumed): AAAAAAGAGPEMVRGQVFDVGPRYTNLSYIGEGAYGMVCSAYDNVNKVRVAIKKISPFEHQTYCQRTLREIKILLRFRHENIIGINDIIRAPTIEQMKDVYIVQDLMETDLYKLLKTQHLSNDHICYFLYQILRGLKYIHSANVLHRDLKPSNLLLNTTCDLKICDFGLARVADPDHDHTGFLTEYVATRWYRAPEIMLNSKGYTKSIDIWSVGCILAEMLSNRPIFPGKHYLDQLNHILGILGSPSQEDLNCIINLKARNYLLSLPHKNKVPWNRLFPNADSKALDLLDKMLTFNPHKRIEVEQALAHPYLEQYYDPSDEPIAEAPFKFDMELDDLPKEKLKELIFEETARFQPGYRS
In short: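 Recombinant tagged Erk2 kinase reactions were stopped with ALPHA bead mix […]. The signal was read after standing overnight. Controls were run in eight replicates and compounds in duplicate, and IC50 was fitted.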

PI3Kalpha = PI3Kalpha (Homo sapiens (Human), UniProt P42336); assay: Cell-free kinase assay (ALPHA technology), PI3Kalpha; format: biochemical; conditions: 100 μM ATP
PI3Kalpha, sequence (P42336 whole entry): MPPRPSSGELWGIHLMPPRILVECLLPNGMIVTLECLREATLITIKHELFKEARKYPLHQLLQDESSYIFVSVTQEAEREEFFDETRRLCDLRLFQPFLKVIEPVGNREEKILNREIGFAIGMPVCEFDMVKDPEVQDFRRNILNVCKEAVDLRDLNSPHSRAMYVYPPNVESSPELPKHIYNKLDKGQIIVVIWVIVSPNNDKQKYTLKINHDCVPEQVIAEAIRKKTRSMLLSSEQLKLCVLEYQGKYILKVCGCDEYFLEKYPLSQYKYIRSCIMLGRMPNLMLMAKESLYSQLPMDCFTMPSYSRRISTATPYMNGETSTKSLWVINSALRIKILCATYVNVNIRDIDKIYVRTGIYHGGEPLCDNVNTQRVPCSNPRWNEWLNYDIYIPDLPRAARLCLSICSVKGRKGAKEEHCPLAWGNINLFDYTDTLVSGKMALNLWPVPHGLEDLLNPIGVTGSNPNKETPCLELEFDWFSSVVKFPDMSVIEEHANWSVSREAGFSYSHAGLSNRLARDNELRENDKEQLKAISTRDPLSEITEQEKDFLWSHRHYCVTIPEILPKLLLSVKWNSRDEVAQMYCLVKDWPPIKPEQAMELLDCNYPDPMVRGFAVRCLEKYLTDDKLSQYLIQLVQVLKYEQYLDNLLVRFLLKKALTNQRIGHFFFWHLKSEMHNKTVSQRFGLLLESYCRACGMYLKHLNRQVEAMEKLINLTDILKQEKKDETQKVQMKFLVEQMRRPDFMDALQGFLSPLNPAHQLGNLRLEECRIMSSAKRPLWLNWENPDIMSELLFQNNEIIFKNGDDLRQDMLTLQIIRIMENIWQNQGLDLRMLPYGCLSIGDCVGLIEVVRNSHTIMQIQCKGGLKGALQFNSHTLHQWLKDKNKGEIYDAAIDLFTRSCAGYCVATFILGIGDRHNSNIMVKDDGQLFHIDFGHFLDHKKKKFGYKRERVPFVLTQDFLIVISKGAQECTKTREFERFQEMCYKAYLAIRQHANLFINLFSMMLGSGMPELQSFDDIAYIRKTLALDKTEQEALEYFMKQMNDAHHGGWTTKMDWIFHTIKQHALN
PI3Kalpha, sequence (P27986 whole entry partner): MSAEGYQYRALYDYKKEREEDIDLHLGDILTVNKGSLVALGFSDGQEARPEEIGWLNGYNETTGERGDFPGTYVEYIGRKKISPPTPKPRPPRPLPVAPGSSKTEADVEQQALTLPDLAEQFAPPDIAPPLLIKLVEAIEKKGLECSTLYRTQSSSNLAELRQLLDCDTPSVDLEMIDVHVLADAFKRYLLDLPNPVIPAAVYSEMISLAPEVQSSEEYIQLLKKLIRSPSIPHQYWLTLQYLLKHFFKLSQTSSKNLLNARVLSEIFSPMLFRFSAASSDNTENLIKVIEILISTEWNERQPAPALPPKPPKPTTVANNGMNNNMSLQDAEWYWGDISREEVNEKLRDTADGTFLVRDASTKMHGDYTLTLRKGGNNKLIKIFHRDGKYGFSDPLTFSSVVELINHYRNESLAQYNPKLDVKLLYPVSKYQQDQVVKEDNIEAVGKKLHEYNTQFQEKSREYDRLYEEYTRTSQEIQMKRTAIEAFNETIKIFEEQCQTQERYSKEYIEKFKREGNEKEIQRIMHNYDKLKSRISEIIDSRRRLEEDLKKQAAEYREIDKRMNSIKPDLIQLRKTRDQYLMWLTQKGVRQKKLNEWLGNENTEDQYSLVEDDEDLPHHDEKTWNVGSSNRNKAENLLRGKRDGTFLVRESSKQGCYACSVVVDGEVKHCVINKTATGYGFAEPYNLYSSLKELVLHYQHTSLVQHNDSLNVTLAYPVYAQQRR
In short: (§5)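 Recombinant human GST- or His-tagged kinases were assayed for 1 h with ALPHA bead detection read after overnight standing. For PI3Kalpha: 1 ng enzyme, 100 μM ATP, 20 μM PIP2 in Hepes pH 7.4, detected by GST:Grp1/biotin-PIP3 competition. The p38alpha and Jnk assays followed the MAPK format (10 μM ATP, biotin-MBP, anti-phospho-MBP); IC50 from %-inhibition.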

p38alpha = p38alpha (Homo sapiens (Human), UniProt Q16539); assay: Cell-free kinase assay (ALPHA technology), p38alpha; format: biochemical; conditions: 10 μM ATP
p38alpha, sequence (Q16539 whole entry): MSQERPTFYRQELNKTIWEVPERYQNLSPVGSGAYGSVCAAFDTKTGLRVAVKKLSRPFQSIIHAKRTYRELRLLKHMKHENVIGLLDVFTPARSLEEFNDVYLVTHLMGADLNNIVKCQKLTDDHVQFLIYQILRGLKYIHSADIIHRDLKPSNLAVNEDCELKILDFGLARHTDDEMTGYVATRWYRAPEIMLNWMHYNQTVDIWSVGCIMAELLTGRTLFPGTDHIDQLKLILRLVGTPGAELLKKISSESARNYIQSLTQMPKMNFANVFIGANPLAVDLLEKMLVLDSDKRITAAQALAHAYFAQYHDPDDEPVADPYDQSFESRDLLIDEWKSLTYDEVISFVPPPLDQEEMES

Jnk1 + Jnk2 = assay: Cell-free kinase assay (ALPHA technology), Jnk1 + Jnk2; format: biochemical, human; conditions: 10 μM ATP
In short: as §5

BxPC3 = assay: XTT assay, anti-proliferative effect, BxPC3; format: cell-based; conditions: Homo sapiens, BXPC-3; 45 h incubation
Description: (§6) The principle of this test is based on the intracellular reduction of the tetrazolium dye XTT (sodium 3′-[1-(phenylaminocarbonyl)-3,4-tetrazolium]-bis(4-methoxy-6-nitro)benzene sulfonic acid, Sigma) to a formazan dye by mitochondrial dehydrogenases. The dye is only formed by metabolically active cells and its photometrically measurable intensity is a quantitative indicator for the presence of living cells. The reduction of dye formation by incubation of the cells with substances serves as a parameter for the anti-proliferative effect.
(§7) The tumour cell lines (ATCC) were injected into 96-well microtitre plates in a defined cell number (5000 cells/well for BxPC3 and Hct116; 10000 cells/well for MDA MB468) and then incubated overnight in an incubator at 37° C., 5% CO2 and 95% air humidity. The test substances were prepared as stock solutions (10 mM) in DMSO. […] The cell plates were then incubated for 45 h in an incubator at 37° C., 5% CO2 and 95% air humidity.
(§8) For the detection reaction the substrate XTT was mixed with PMS (N-Methyl dibenzopyrazine methylsulfate, Sigma) and added to the cells so that a final concentration of 325 μg XTT/ml and 2.5 μg PMS/ml was obtained. It was then incubated for 3 h at 37° C., 95% air humidity. The formazan salt formed by the cellular dehydrogenases could then be quantified by adsorption at 490 nm.
(§9) The % inhibition value was evaluated by means of the following formula from the values for the optical densities measured in each case at 490 nm:
(§10) Eight determinations were made for each control and two for the substance samples. The 0% control contains no cells, the 100% control (proliferation control) contains no test substance. The EC50 values were determined using GraphPadPrism.

MDA-MB468 = assay: XTT assay, anti-proliferative effect, MDA-MB468; format: cell-based; conditions: Homo sapiens, MDA-MB-468; 45 h incubation
Description: as §6, §7, §8, §9, §10

Hct116 = assay: XTT assay, anti-proliferative effect, Hct116; format: cell-based; conditions: Homo sapiens, HCT-116; 45 h incubation
Description: as §6, §7, §8, §9, §10

[1] = test system: tumour cell lines (BxPC3, Hct116, MDA MB468); assay: XTT assay, anti-proliferative effect on the cell lines used; format: cell-based; conditions: compared to the Exemplary Embodiments
Description: as §6
The tumour cell lines (ATCC) were injected into 96-well microtitre plates in a defined cell number (5000 cells/well for BxPC3 and Hct116; 10000 cells/well for MDA MB468) and then incubated overnight in an incubator at 37° C., 5% CO2 and 95% air humidity. […]
as §8, with “It was then incubated for 3 h at 37° C., 95% air humidity.” left out
as §9
Eight determinations were made for each control and two for the substance samples. […] The EC50 values were determined using GraphPadPrism.

IC50 (Erk2) [µM]	IC50 (PI3Kalpha) [µM]	IC50 (p38alpha) [µM]	IC50 (Jnk1 + Jnk2) [µM]	EC50 (BxPC3) [µM]	EC50 (MDA-MB468) [µM]	EC50 (Hct116) [µM]	Structure (SMILES)	inhibition at 50 µM (Erk → pRsk) [%]	Erk inhibition / inhibition of the Erk substrate p-Rsk (in words) (Erk → pRsk)	inhibition at 50 µM (PI3K → pAkt) [%]	PI3K inhibition / inhibition of the PI3K substrate p-Akt (in words) (PI3K → pAkt)	anti-proliferative effects on the cell lines used (in words) [1]
							COC[C@H]1OC(=O)c2coc3c2[C@@]1(C)C1=C(C3=O)[C@@H]2CCC(=O)[C@@]2(C)C[C@H]1OC(C)=O [Wortmannin, reference compound]	0	no Erk or p-RSK inhibition	100	complete inhibition of the PI3K substrate pAkt	
0.138	0.425	> 100	2.1	8.9	15	1.4	CCNC(=O)Nc1ccc2ncc(-c3cc(Cl)c(O)c(OC)c3)nc2n1 [Compound 156, 1-[3-(3-Chloro-4-hydroxy-5-methoxy-phenyl)-pyrido[2,3-b]pyrazin-6-yl]-3-ethyl-urea]					
> 100	0.348	> 100	28.5	> 25	3.5	4.4	CCNC(=O)Nc1ccc2ncc(Nc3cccc(C)c3)nc2n1 [Compound 157, 1-Ethyl-3-(3-m-tolylamino-pyrido-[2,3-b]pyrazin-6-yl)-urea]					
19.6	0.444	> 100	24.3	> 50	5.2	> 25	CCNC(=O)Nc1ccc2ncc(Nc3ccc(O)cc3)nc2n1 [Compound 164, 1-Ethyl-3-[3-(4-hydroxy-phenylamino)-pyrido[2,3-b]pyrazin-6-yl]-urea]					
				25	20	17	O=c1cc(N2CCOCC2)oc2c(-c3ccccc3)cccc12 [Ly294002, reference compound]	0	no Erk inhibition	40	only weak PI3K inhibition	weak anti-proliferative effects
0.939	0.612	> 100	6.7	> 25	24	6	CCNC(=O)Nc1ccc2ncc(-c3ccc(OC)c(OC)c3)nc2n1 [Compound 153, 1-[3-(3,4-Dimethoxy-phenyl)-pyrido[2,3-b]pyrazin-6-yl]-3-ethyl-urea]					

Source: patent US8937068B2, “Pyridopyrazine derivatives and their use” (Zentaris GmbH, priority 2005, dated 2015)
